In US20120077803A1, “Uses Of NK Receptor Antagonists” (NOVARTIS AG, priority 2009, published 2012):

Columns and labels:
[1] = test system: dogs with flea allergic dermatitis; test: Pruritus intensity by Actical activity monitors in flea allergic dogs; type: in vivo, Beagle dogs; conditions: for Actical day, mean (standard deviation): 6am-6pm; for Actical night, mean (standard deviation): 6pm-6am
Experimental: (§1) Flea-allergic laboratory Beagle dogs are infested with fleas. Fifty (50) Ctenocephalides felis fleas, 18 to 20 days old are released on the back of every dog on D1. Dogs are combed 48 hours (D3) after infestation to reduce the number of fleas (reduction of allergen charge).
Pruritus intensity: Pruritus intensity is evaluated using activity monitors (Actical™: Actiwatch™; Cambridge Neuorotechnology Ltd, Papworth Everard, UK) according to Nuttall and McEwan. (Nuttal T and McEwan N, “Objective measurement of pruritus in dogs: a preliminary study using activity monitors”. ESVD, 2006, 17 348-351). The physical activity monitors, mounted on collars, are placed around the dog's neck and tightened to the extent that they more with the skin but not so that they compress the underlying tissues. They were put on the dogs on D −5. […] This typically allows to see the difference in activity when the dogs have fleas and are developing pruritic and inflammatory lesions (i.e. dermatitis) and then again their activity during treatment with either the Test Compound or Prednisolone. The activity monitors are typically removed at the end of each phase on D12. Activity monitors measure the movement average within 15 seconds,
(§2) Skin lesions are allowed to develop until the total lesion score reaches ˜20. The Test Compound is then given orally at 50, 150 and 300 mg/day, divided into 2 doses, for 5 days. Prednisolone (10 mg/day, orally) is used as a comparator.
(§3) Lesion scores and Actical™ measurement values are typically observed on the following days: • Pre-value: before challenge with fleas • the day of challenge with fleas (Actical™ measurements only); • D1: the day when the total lesion score reached a sufficiently high value (average lesion score 20) and treatment of the animal started. • D2 to D6,
(§4) In the treatment group, lesion scores were taken from 8 dogs. Actical™ measurements were also taken from 6 of these dogs.

[2] = test system: dogs with flea allergic dermatitis; test: Skin lesion scores (total lesion score) in dogs with flea-allergic dermatitis; type: in vivo, Beagle dogs
Experimental: as §1
Skin observations: before flea infestations (D −1) all dogs are typically examined to establish a baseline score for erythema, papules, crusts, scales, alopecia, and excoriation. From D1, daily clinical observations are performed. Each lesion is typically graded using a scale from 0 to 3:
0=no signs 1=mild 2=moderate 3=severe
as §2
Erythema: is typically an acute clinical sign of cutaneous inflammation defined as redness of the skin caused by capillary congestion which can be aggravated by scratching. Excoriation: is typically a punctuate or linear abrasion produced by mechanical means, usually involving only the epidermis but not uncommonly reaching the papillary dermis. […] Papule: is typically a circumscribed, solid elevation with no visible fluid, varying in size from a pinhead to 1 cm. […], formed when there is a high break in the follicle wall. In the presence of bacteria, papules become pustules. Crusts: are typically dried serum, pus, or blood usually mixed with epithelial and sometimes bacterial debris. Scales: are dry or greasy laminated masses of keratin.
as §3, §4
• Erythema*, • Excoriations*, • Papules/pustules • Self induced alopecia^o, and • Scales, • Erythema and excoriations are related to pruritus • Self induced alopecia is also related to pruritus but the improvement is […] after several weeks of treatment.
Day 1 of treatment when dogs reached a sufficient lesion score to initiate treatment (average 20). Pre-values (baseline).

[3] = 50 mg/day orally in 2 doses, day 1 (treatment start)
[4] = 50 mg/day orally in 2 doses, day 2
[5] = 50 mg/day orally in 2 doses, day 3
[6] = 50 mg/day orally in 2 doses, day 4
[7] = 50 mg/day orally in 2 doses, day 5
[8] = 50 mg/day orally in 2 doses, day 6
[9] = 150 mg/day orally in 2 doses, day 1 (treatment start)
[10] = 150 mg/day orally in 2 doses, day 2
[11] = 150 mg/day orally in 2 doses, day 3
[12] = 150 mg/day orally in 2 doses, day 4
[13] = 150 mg/day orally in 2 doses, day 5
[14] = 150 mg/day orally in 2 doses, day 6
[15] = 300 mg/day orally in 2 doses, day 1 (treatment start)
[16] = 300 mg/day orally in 2 doses, day 2
[17] = 300 mg/day orally in 2 doses, day 3
[18] = 300 mg/day orally in 2 doses, day 4
[19] = 300 mg/day orally in 2 doses, day 5
[20] = 300 mg/day orally in 2 doses, day 6

CN(C(=O)c1cc(C(F)(F)F)cc(C(F)(F)F)c1)[C@@H](/C=C/C(=O)N[C@@H]1CCCCNC1=O)Cc1ccc(Cl)c(Cl)c1 [Test Compound, N-[(E)-(R)-1-(3,4-Dichloro-benzyl)-3-((R)-2-oxo-azepan-3-ylcarbamoyl)-allyl]-N-methyl-3,5-bis-trifluoromethyl-benzamide]
Control of pruritic activity (daytime) compared with Prednisolone ([1]; 150 mg and 50 mg, after 5 days of BID administrations): equipotent to the Prednisolone controls
Actical day, mean (standard deviation) [1, 3]: 88 (46) Average activity counts every 15 secs
Actical day, mean (standard deviation) [1, 4]: 64 (40) Average activity counts every 15 secs
Actical day, mean (standard deviation) [1, 5]: 72 (35) Average activity counts every 15 secs
Actical day, mean (standard deviation) [1, 6]: 67 (37) Average activity counts every 15 secs
Actical day, mean (standard deviation) [1, 7]: 62 (40) Average activity counts every 15 secs
Actical day, mean (standard deviation) [1, 8]: 48 (31) Average activity counts every 15 secs
Actical day, mean (standard deviation) ([1]; 50 mg/day orally in 2 doses, fleas (day of challenge)): 84 (47) Average activity counts every 15 secs
Actical day, mean (standard deviation) ([1]; 50 mg/day orally in 2 doses, pre (before exposure to fleas)): 46 (16) Average activity counts every 15 secs
Actical day, mean (standard deviation) [1, 9]: 58 (17) Average activity counts every 15 secs
Actical day, mean (standard deviation) [1, 10]: 48 (13) Average activity counts every 15 secs
Actical day, mean (standard deviation) [1, 11]: 53 (15) Average activity counts every 15 secs
Actical day, mean (standard deviation) [1, 12]: 44 (17) Average activity counts every 15 secs
Actical day, mean (standard deviation) [1, 13]: 60 (41) Average activity counts every 15 secs
Actical day, mean (standard deviation) [1, 14]: 40 (21) Average activity counts every 15 secs
Actical day, mean (standard deviation) ([1]; 150 mg/day orally in 2 doses, fleas (day of challenge)): 53 (16) Average activity counts every 15 secs
Actical day, mean (standard deviation) ([1]; 150 mg/day orally in 2 doses, pre (before exposure to fleas)): 31 (8) Average activity counts every 15 secs
Actical day, mean (standard deviation) [1, 15]: 114 (35) Average activity counts every 15 secs
Actical day, mean (standard deviation) [1, 16]: 116 (77) Average activity counts every 15 secs
Actical day, mean (standard deviation) [1, 17]: 99 (38) Average activity counts every 15 secs
Actical day, mean (standard deviation) [1, 18]: 107 (28) Average activity counts every 15 secs
Actical day, mean (standard deviation) [1, 19]: 129 (53) Average activity counts every 15 secs
Actical day, mean (standard deviation) [1, 20]: 79 (21) Average activity counts every 15 secs
Actical day, mean (standard deviation) ([1]; 300 mg/day orally in 2 doses, fleas (day of challenge)): 93 (37) Average activity counts every 15 secs
Actical day, mean (standard deviation) ([1]; 300 mg/day orally in 2 doses, pre (before exposure to fleas)): 58 (21) Average activity counts every 15 secs
Actical night, mean (standard deviation) ([1]; 50 mg/day orally in 2 doses, Fleas (day of challenge)): 6.8 (4.9) Average activity counts every 15 secs
Actical night, mean (standard deviation) ([1]; 50 mg/day orally in 2 doses, Pre (before exposure to fleas)): 5.2 (3.3) Average activity counts every 15 secs
Actical night, mean (standard deviation) [1, 3]: 22.1 (13.5) Average activity counts every 15 secs
Actical night, mean (standard deviation) [1, 4]: 13.2 (11.8) Average activity counts every 15 secs
Actical night, mean (standard deviation) [1, 5]: 11.5 (7.3) Average activity counts every 15 secs
Actical night, mean (standard deviation) [1, 6]: 12.6 (9.9) Average activity counts every 15 secs
Actical night, mean (standard deviation) [1, 7]: 9.8 (6.8) Average activity counts every 15 secs
Actical night, mean (standard deviation) [1, 8]: 9.9 (7.4) Average activity counts every 15 secs
Actical night, mean (standard deviation) ([1]; 150 mg/day orally in 2 doses, Fleas (day of challenge)): 6.2 (3.8) Average activity counts every 15 secs
Actical night, mean (standard deviation) ([1]; 150 mg/day orally in 2 doses, Pre (before exposure to fleas)): 4.2 (2.2) Average activity counts every 15 secs
Actical night, mean (standard deviation) [1, 9]: 14.6 (4.2) Average activity counts every 15 secs
Actical night, mean (standard deviation) [1, 10]: 10.7 (6.8) Average activity counts every 15 secs
Actical night, mean (standard deviation) [1, 11]: 10.6 (7.5) Average activity counts every 15 secs
Actical night, mean (standard deviation) [1, 12]: 9.4 (4.2) Average activity counts every 15 secs
Actical night, mean (standard deviation) [1, 13]: 10.4 (6.5) Average activity counts every 15 secs
Actical night, mean (standard deviation) [1, 14]: 11.2 (7.4) Average activity counts every 15 secs
Actical night, mean (standard deviation) ([1]; 300 mg/day orally in 2 doses, Fleas (day of challenge)): 6.8 (3.0) Average activity counts every 15 secs
Actical night, mean (standard deviation) ([1]; 300 mg/day orally in 2 doses, Pre (before exposure to fleas)): 7.0 (3.8) Average activity counts every 15 secs
Actical night, mean (standard deviation) [1, 15]: 24.6 (22.5) Average activity counts every 15 secs
Actical night, mean (standard deviation) [1, 16]: 11.9 (4.8) Average activity counts every 15 secs
Actical night, mean (standard deviation) [1, 17]: 16.8 (9.5) Average activity counts every 15 secs
Actical night, mean (standard deviation) [1, 18]: 20.7 (10.5) Average activity counts every 15 secs
Actical night, mean (standard deviation) [1, 19]: 16.2 (13.2) Average activity counts every 15 secs
Actical night, mean (standard deviation) [1, 20]: 13.3 (10.2) Average activity counts every 15 secs
Control of nighttime activity back to baseline ([1]; Test Compound doses, in particular 50 mg, BID): positive efficacy
Total score ctb (total lesion score compared to baseline), mean (standard deviation) [2, 4]: −3.7 (4.9)
Total score ctb (total lesion score compared to baseline), mean (standard deviation) [2, 5]: −2.8 (5.5)
Total score ctb (total lesion score compared to baseline), mean (standard deviation) [2, 6]: −1.9 (7.1)
Total score ctb (total lesion score compared to baseline), mean (standard deviation) [2, 7]: −2.8 (6.4)
Total score ctb (total lesion score compared to baseline), mean (standard deviation) [2, 8]: −8.7 (9.9)
Total score ctb (total lesion score compared to baseline), mean (standard deviation) [2, 10]: −2.3 (3.3)
Total score ctb (total lesion score compared to baseline), mean (standard deviation) [2, 11]: −3.9 (4.0)
Total score ctb (total lesion score compared to baseline), mean (standard deviation) [2, 12]: −6.4 (3.3)
Total score ctb (total lesion score compared to baseline), mean (standard deviation) [2, 13]: −5.0 (3.8)
Total score ctb (total lesion score compared to baseline), mean (standard deviation) [2, 14]: −8.8 (8.8)
Reduction of the lesion score (inhibition) compared with prednisolone ([2]; 300 mg, 150 mg, 50 mg): in the same range as the potent corticosteroid prednisolone
Total score ctb (total lesion score compared to baseline), mean (standard deviation) [2, 16]: −3.6 (9.1)
Total score ctb (total lesion score compared to baseline), mean (standard deviation) [2, 17]: −4.1 (6.4)
Total score ctb (total lesion score compared to baseline), mean (standard deviation) [2, 18]: −7.6 (8.4)
Total score ctb (total lesion score compared to baseline), mean (standard deviation) [2, 19]: −7.6 (9.7)
Total score ctb (total lesion score compared to baseline), mean (standard deviation) [2, 20]: −6.7 (8.1)
